{"source": "patent US7250442B2", "about": "“Dihydroindol-2-one derivatives as steroid hormone nuclear receptor modulators” (Eli Lilly and Company, priority 2003, dated 2007)"}
{"target": "T1, glucocorticoid receptor (Homo sapiens, UniProt P04150)", "T1 construct": "host or cells: A549 human lung epithelial cells (sonicated cell extract)", "T1 sequence (P04150 1-777)": "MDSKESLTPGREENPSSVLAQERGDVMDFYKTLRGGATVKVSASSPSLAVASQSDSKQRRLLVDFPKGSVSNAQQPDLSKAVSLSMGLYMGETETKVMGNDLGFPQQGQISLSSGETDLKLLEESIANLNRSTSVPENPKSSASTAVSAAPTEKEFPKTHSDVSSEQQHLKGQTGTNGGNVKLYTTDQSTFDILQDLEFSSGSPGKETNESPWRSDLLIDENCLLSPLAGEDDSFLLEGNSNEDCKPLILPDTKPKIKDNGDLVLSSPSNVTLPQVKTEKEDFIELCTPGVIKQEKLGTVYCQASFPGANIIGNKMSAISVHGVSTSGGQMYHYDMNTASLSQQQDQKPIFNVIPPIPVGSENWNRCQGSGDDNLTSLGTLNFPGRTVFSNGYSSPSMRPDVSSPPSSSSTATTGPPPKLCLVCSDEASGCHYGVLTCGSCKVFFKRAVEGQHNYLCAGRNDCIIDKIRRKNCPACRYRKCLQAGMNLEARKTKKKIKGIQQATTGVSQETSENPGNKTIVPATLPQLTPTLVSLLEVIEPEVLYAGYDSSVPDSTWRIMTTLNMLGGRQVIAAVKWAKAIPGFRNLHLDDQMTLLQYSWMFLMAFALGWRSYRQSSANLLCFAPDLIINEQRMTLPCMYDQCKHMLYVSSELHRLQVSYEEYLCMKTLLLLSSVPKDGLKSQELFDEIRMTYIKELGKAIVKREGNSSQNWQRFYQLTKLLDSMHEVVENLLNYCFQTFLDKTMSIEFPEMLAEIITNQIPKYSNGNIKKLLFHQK", "assay": "Glucocorticoid Receptor Binding Assay ([3H]-dexamethasone displacement, A549 cell extract)", "conditions": "A549 human lung epithelial cell extract, 1.86 nM [3H]-dexamethasone; read-out: GR Ki", "method_in_brief": "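A549 cell extract (50-200 ug; buffer 50 mM Tris-HCl pH 7.2 with glycerol, NaCl, MgCl2, EDTA, 10 mM molybdate) incubated with 1.86 nM [3H]-dexamethasone and test compound, 16 h at 4 °C. Unbound ligand removed with dextran-coated charcoal; bound radioactivity counted. IC50 converted to Ki via Cheng-Prusoff.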", "units": {"Ki": "µM"}}
{"smiles": "COc1cccc(N2C(=O)C(c3cc(C)c(O)c(C)c3)(c3cc(C)c(O)c(C)c3)c3ccccc32)c1", "note": "[Example 134, 3,3-Bis-(4-hydroxy-3,5-dimethyl-phenyl)-1-(3-methoxy-phenyl)-1,3-dihydro-indol-2-one]", "Ki": "≤ 0.5"}
{"smiles": "Cc1cc(C2(c3cc(C)c(O)c(C)c3)C(=O)N(Cc3ccc(Br)cc3F)c3ccccc32)cc(C)c1O", "note": "[Example 81, 1-(4-Bromo-2-fluoro-benzyl)-3,3-bis-(4-hydroxy-3,5-dimethyl-phenyl)-1,3-dihydro-indol-2-one]", "Ki": "≤ 0.5"}
{"smiles": "COc1ccc2c(c1)C(c1cc(C)c(O)c(C)c1)(c1cc(C)c(O)c(C)c1)C(=O)N2Cc1ccccc1", "note": "[Example 16, 1-Benzyl-3,3-bis-(4-hydroxy-3,5-dimethyl-phenyl)-5-methoxy-1,3-dihydro-indol-2-one]", "Ki": "≤ 0.5"}
{"smiles": "Cc1nc(CN2C(=O)C(c3cc(C)c(O)c(C)c3)(c3cc(C)c(O)c(C)c3)c3ccccc32)cs1", "note": "[Example 89, 3,3-Bis-(4-hydroxy-3,5-dimethyl-phenyl)-1-(2-methyl-thiazol-4-ylmethyl)-1,3-dihydro-indol-2-one]", "Ki": "≤ 1"}
{"smiles": "Cc1cc(C2(c3cc(C)c(O)c(C)c3)C(=O)N(CC3CC3)c3ccccc32)cc(C)c1O", "note": "[Example 105, 1-Cyclopropylmethyl-3,3-bis-(4-hydroxy-3,5-dimethyl-phenyl)-1,3-dihydro-indol-2-one]", "Ki": "≤ 0.5"}
{"smiles": "COc1ccc(N2C(=O)C(c3cc(C)c(O)c(C)c3)(c3cc(C)c(O)c(C)c3)c3ccccc32)cc1", "note": "[Example 128, 3,3-Bis-(4-hydroxy-3,5-dimethyl-phenyl)-1-(4-methoxy-phenyl)-1,3-dihydro-indol-2-one]", "Ki": "≤ 0.5"}
{"smiles": "Cc1cc(C2(c3ccc(O)cc3)C(=O)N(Cc3ccccc3)c3ccccc32)cc(C)c1O", "note": "(stereo not shown) [Example 29, 1-Benzyl-3-(4-hydroxy-3,5-dimethyl-phenyl)-3-(4-hydroxy-phenyl)-1,3-dihydro-indol-2-one]", "Ki": "≤ 0.5"}
{"smiles": "Cc1cc(C2(c3cc(C)c(O)c(C)c3)C(=O)N(Cc3ccc(F)cc3)c3ccccc32)cc(C)c1O", "note": "[Example 2]", "Ki": "≤ 0.5"}
{"smiles": "Cc1cc(C2(c3cc(C)c(O)c(C)c3)C(=O)N(Cc3cc(C(F)(F)F)ccc3F)c3ccccc32)cc(C)c1O", "note": "[Example 112, 1-(2-Fluoro-5-trifluoromethyl-benzyl)-3,3-bis-(4-hydroxy-3,5-dimethyl-phenyl)-1,3-dihydro-indol-2-one]", "Ki": "≤ 0.5"}
{"smiles": "Cc1cc(C2(c3cc(C)c(O)c(C)c3)C(=O)N(c3cccnc3)c3ccccc32)cc(C)c1O", "note": "[Example 135, 3,3-Bis-(4-hydroxy-3,5-dimethyl-phenyl)-1-pyridin-3-yl-1,3-dihydro-indol-2-one]", "Ki": "≤ 0.5"}
{"smiles": "Cc1cc(C2(c3cc(C)c(O)c(C)c3)C(=O)N(Cc3ccc(O)cc3)c3ccccc32)cc(C)c1O", "note": "[Example 88, 1-(4-Hydroxy-benzyl)-3,3-bis-(4-hydroxy-3,5-dimethyl-phenyl)-1,3-dihydro-indol-2-one]", "Ki": "≤ 0.5"}
{"smiles": "COc1ccccc1C(=O)CN1C(=O)C(c2cc(C)c(O)c(C)c2)(c2cc(C)c(O)c(C)c2)c2ccccc21", "note": "[Example 44, 3,3-Bis-(4-hydroxy-3,5-dimethyl-phenyl)-1-[2-(2-methoxy-phenyl)-2-oxo-ethyl]-1,3-dihydro-indol-2-one]", "Ki": "≤ 0.5"}
{"smiles": "Cc1cc(C2(c3cc(C)c(O)c(C)c3)C(=O)N(Cc3cccc(N)c3)c3ccccc32)cc(C)c1O", "note": "[Example 118, 1-(3-Amino-benzyl)-3,3-bis-(4-hydroxy-3,5-dimethyl-phenyl)-1,3-dihydro-indol-2-one]", "Ki": "≤ 0.5"}
{"smiles": "COc1cccc(C(=O)CN2C(=O)C(c3cc(C)c(O)c(C)c3)(c3cc(C)c(O)c(C)c3)c3ccccc32)c1", "note": "[Example 45, 3,3-Bis-(4-hydroxy-3,5-dimethyl-phenyl)-1-[2-(3-methoxy-phenyl)-2-oxo-ethyl]-1,3-dihydro-indol-2-one]", "Ki": "≤ 0.5"}
{"smiles": "COc1ccc(OC)c(C(=O)CN2C(=O)C(c3cc(C)c(O)c(C)c3)(c3cc(C)c(O)c(C)c3)c3ccccc32)c1", "note": "[Example 49, 1-[2-(2,5-Dimethoxy-phenyl)-2-oxo-ethyl]-3,3-bis-(4-hydroxy-3,5-dimethyl-phenyl)-1,3-dihydro-indol-2-one]", "Ki": "≤ 0.5"}
{"smiles": "Cc1cc(C2(c3cc(C)c(O)c(C)c3)C(=O)N(Cc3ccc(C(F)(F)F)cc3)c3ccccc32)cc(C)c1O", "note": "[Example 57, 3,3-Bis-(4-hydroxy-3,5-dimethyl-phenyl)-1-(4-trifluoromethyl-benzyl)-1,3-dihydro-indol-2-one]", "Ki": "≤ 0.5"}
{"smiles": "Cc1cc(C2(c3cc(C)c(O)c(C)c3)C(=O)N(CCc3scnc3C)c3ccccc32)cc(C)c1O", "note": "[Example 121, 3,3-Bis-(4-hydroxy-3,5-dimethyl-phenyl)-1-[2-(4-methyl-thiazol-5-yl)-ethyl]-1,3-dihydro-indol-2-one]", "Ki": "≤ 0.5"}
{"smiles": "Cc1cc(C2(c3cc(C)c(O)c(C)c3)C(=O)N(Cc3ccccn3)c3ccccc32)cc(C)c1O", "note": "[Example 100, 3,3-Bis-(4-hydroxy-3,5-dimethyl-phenyl)-1-pyridin-2-ylmethyl-1,3-dihydro-indol-2-one]", "Ki": "≤ 0.5"}
{"smiles": "Cc1cc(C2(c3cc(C)c(O)c(C)c3)C(=O)N(Cc3ccc(Cl)c(Cl)c3)c3ccccc32)cc(C)c1O", "note": "[Example 52, 1-(3,4-Dichloro-benzyl)-3,3-bis-(4-hydroxy-3,5-dimethyl-phenyl)-1,3-dihydro-indol-2-one]", "Ki": "≤ 0.5"}
{"smiles": "COc1ccc(C(=O)CN2C(=O)C(c3cc(C)c(O)c(C)c3)(c3cc(C)c(O)c(C)c3)c3ccccc32)cc1", "note": "[Example 46, 3,3-Bis-(4-hydroxy-3,5-dimethyl-phenyl)-1-[2-(4-methoxy-phenyl)-2-oxo-ethyl]-1,3-dihydro-indol-2-one]", "Ki": "≤ 0.5"}
{"smiles": "Cc1cc(C2(c3cc(C)c(O)c(C)c3)C(=O)N(C3CCCC3)c3ccccc32)cc(C)c1O", "note": "[Example 114, 1-Cyclopentyl-3,3-bis-(4-hydroxy-3,5-dimethyl-phenyl)-1,3-dihydro-indol-2-one]", "Ki": "≤ 0.5"}
{"smiles": "Cc1cc(C2(c3cc(C)c(O)c(C)c3)C(=O)N(Cc3ccc(N)cc3)c3ccccc32)cc(C)c1O", "note": "[Example 117, 11-(4-Amino-benzyl)-3,3-bis-(4-hydroxy-3,5-dimethyl-phenyl)-1,3-dihydro-indol-2-one]", "Ki": "≤ 0.5"}
{"smiles": "Cc1cc(C2(c3cc(C)c(O)c(C)c3)C(=O)N(Cc3cccc4ccccc34)c3ccccc32)cc(C)c1O", "note": "[Example 10, 3,3-Bis-(4-hydroxy-3,5-dimethyl-phenyl)-1-naphthalen-1-ylmethyl-1,3-dihydro-indol-2-one]", "Ki": "≤ 10"}
{"smiles": "Cc1cc(C2(c3cc(C)c(O)c(C)c3)C(=O)N(Cc3ccccc3C#N)c3ccccc32)cc(C)c1O", "note": "[Example 51, 2-[3,3-Bis-(4-hydroxy-3,5-dimethyl-phenyl)-2-oxo-2,3-dihydro-indol-1-ylmethyl]-benzonitrile]", "Ki": "≤ 0.5"}
{"smiles": "Cc1cc(C2(c3cc(C)c(O)c(C)c3)C(=O)N(Cc3ccc(C(C)(C)C)cc3)c3ccccc32)cc(C)c1O", "note": "[Example 7, 1-(4-tert-Butyl-benzyl)-3,3-bis-(4-hydroxy-3,5-dimethyl-phenyl)-1,3-dihydro-indol-2-one]", "Ki": "≤ 1"}
{"smiles": "Cc1cc(C2(c3cc(C)c(O)c(C)c3)C(=O)N(c3cccc(Br)c3)c3ccccc32)cc(C)c1O", "note": "[Example 139, 1-(3-Bromo-phenyl)-3,3-bis-(4-hydroxy-3,5-dimethyl-phenyl)-1,3-dihydro-indol-2-one]", "Ki": "≤ 0.5"}
{"smiles": "Cc1cc(C2(c3cc(C)c(O)c(C)c3)C(=O)N(Cc3c(C)cccc3C)c3ccccc32)cc(C)c1O", "note": "[Example 107, 1-(2,6-Dimethyl-benzyl)-3,3-bis-(4-hydroxy-3,5-dimethyl-phenyl)-1,3-dihydro-indol-2-one]", "Ki": "≤ 0.5"}
{"smiles": "Cc1cc(C2(c3cc(C)c(O)c(C)c3)C(=O)N(Cc3cccc(Cl)c3)c3ccccc32)cc(C)c1O", "note": "[Example 60, 1-(3-Chloro-benzyl)-3,3-bis-(4-hydroxy-3,5-dimethyl-phenyl)-1,3-dihydro-indol-2-one]", "Ki": "≤ 0.5"}
{"smiles": "Cc1ccc2c(c1)C(c1cc(C)c(O)c(C)c1)(c1cc(C)c(O)c(C)c1)C(=O)N2Cc1csc(C)n1", "note": "[Example 93, 3,3-Bis-(4-hydroxy-3,5-dimethyl-phenyl)-5-methyl-1-(2-methyl-thiazol-4-ylmethyl)-1,3-dihydro-indol-2-one]", "Ki": "≤ 10"}
{"smiles": "COC(=O)c1cccc(CN2C(=O)C(c3cc(C)c(O)c(C)c3)(c3cc(C)c(O)c(C)c3)c3ccccc32)c1", "note": "[Example 55, 3-[3,3-Bis-(4-hydroxy-3,5-dimethyl-phenyl)-2-oxo-2,3-dihydro-indol-1-ylmethyl]-benzoic acid methyl ester]", "Ki": "≤ 0.5"}
{"smiles": "Cc1cc(C2(c3cc(C)c(O)c(C)c3)C(=O)N(Cc3cccc(C(F)(F)F)c3)c3ccccc32)cc(C)c1O", "note": "[Example 61, 3,3-Bis-(4-hydroxy-3,5-dimethyl-phenyl)-1-(3-trifluoromethyl-benzyl)-1,3-dihydro-indol-2-one]", "Ki": "≤ 0.5"}
